Measurements taken from US20060111289A1, “Compositions and methods of using Alpha-fetoprotein growth inhibitory peptides” (Serometrix, LLC,, priority 2004, published 2006).
“Also recorded” adds a separate entry of the source. Read-outs that look alike come from different tables or passages of the source. Where a SMILES comes first, the peptide text is derived from it.

How the values were obtained:
[1] = system: UACC-257; conditions: UACC-257 (melanoma, squamous); 2-Day Assay; Conc. 10^−2 Molar
[2] = system: RXF-393; conditions: RXF-393 (kidney, renal CA); 2-Day Assay; Conc. 10^−1 Molar
[3] = system: IGROV1; conditions: IGROV1 (ovary, AC); 2-Day Assay; Conc. 10^−1 Molar
[4] = system: K-562; conditions: K-562 (white blood cell, leukemia); 6-Day Assay; Conc. 10^−7 Molar
[5] = system: MCF-7; conditions: MCF-7 (breast, AC); 2-Day Assay; Conc. 10^−2 Molar
[6] = system: CCRF-CEM; conditions: CCRF-CEM (white blood cell, leukemia)
[7] = system: human kidney tumor cell line
[8] = system: Molt-4; conditions: Molt-4 (white blood cell, leukemia); 2-Day Assay; Conc. 10^−2 Molar
[9] = system: SK-MeL-5; conditions: SK-MeL-5 (melanoma, squamous)
[10] = system: OVCAR-3; conditions: OVCAR-3 (ovary, AC); 2-Day Assay; Conc. 10^−2 Molar
[11] = system: T-47D; conditions: T-47D (breast, AC)
[12] = system: Colo-205; conditions: Colo-205 (colon, AC)
[13] = system: U-251; conditions: U-251 (central nervous system, CA); 2-Day Assay; Conc. 10^−2 Molar
[14] = system: HCC-299; conditions: HCC-299 (colon, AC); 2-Day Assay; Conc. 10^−1 Molar
[15] = system: DU-145; conditions: DU-145 (prostate, AC); 2-Day Assay; Conc. 10^−1 Molar
[16] = system: 60 cancer cell lines; assay: NCI screen of 60 cancer cell lines, 2 day versus 6-day sulforhodamine assay; assay type: cell-based, human; conditions: nine different cancer cell types
Text: These findings detailed the in vitro results of the GIP challenges against 60 different cell culture lines representing a variety of human cancers.

[17] = system: SF-539; conditions: SF-539 (central nervous system, CA)
[18] = system: NCI-H226; conditions: NCI-H226 (non-small cell lung, CA)
[19] = system: NCI-H460; conditions: NCI-H460 (non-small cell lung, CA); 2-Day Assay; Conc. 10^−2 Molar
[20] = system: MDA-MB-435; conditions: MDA-MB-435 (breast, AC); 2-Day Assay; Conc. 10^−1 Molar
[21] = system: PC-3; conditions: PC-3 (prostate, AC); 2-Day Assay; Conc. 10^−1 Molar
[22] = system: MDA-MB-231; conditions: MDA-MB-231 (breast, AC); 6-Day Assay; Conc. 10^−7 only Molar
[23] = system: ACHN; conditions: ACHN (kidney, renal CA); 2-Day Assay; Conc. 10^−2 Molar
[24] = system: 6WI-1 mammary tumor cells; assay: 6WI-1 mammary tumor in 15-day old mouse pups (6 day assay); assay type: in vivo; conditions: mouse, in vivo
Text: As an alternative model of the 6WI-I mammary tumor in adult mice, an inocula of 1×10^6 tumor cells injected into 15-day old mouse pups provided a 6 day rather than a 12 day assay and replicated the same tumor growth suppression by GIP.

[25] = system: MCF-7 and GI-101 cells; assay: ATP luminescence cytostatic assay (6 days); assay type: cell-based, human; conditions: peptide 10^−12 to 10^−8 M
Text: FIG. 2 presents exemplary data for both in vivo and in vitro growth suppressive activities of the GIP-derived P149 and control peptides are depicted in GI-101 human ductal breast carcinoma and in MCF-7 human glandular breast carcinoma. • Panels A and A2: GI-101 and MCF-7 xenograft in nude mice administered P149 time-release pellets for 60 days and 30 days, respectively (N=5 mice/group). • Panels B and B2: GI-101 and MCF-7 in cell cultures treated with P149 and P187 at concentrations from 10-8 to 10-12 M for 6 days and assayed by ATP luminescence reagent employing a luciferin-luciferase system. The ATP assay, used to distinguish between cytostasis versus cytotoxicity, was used to confirm that P149 was cytostatic in its cell inhibitory activity at 6 days (see text for details).
In order to confirm whether P149 was indeed cytostatic, and not cytotoxic, an ATP-based cytostatic assay was performed which measures the decrease in cytosolic ATP during drug (i.e., for example, GIP peptide) treatment. This ATP luminescence assay has long been employed to distinguish between cytostatic versus cytotoxic chemotherapeutic sensitivity of drugs. […] After incubation of the cell cultures for 6 days, cytosolic ATP was extracted, stabilized, and quantitated from a standard curve produced from Berthold LB-96P luminometer readings using a luciferin-luciferase counting reagent.

CC[C@H](C)[C@H](NC(=O)[C@H](CS)NC(=O)[C@H](CC(C)C)NC(=O)[C@H](Cc1c[nH]cn1)NC(=O)CNC(=O)[C@@H](NC(=O)[C@@H](NC(=O)[C@@H](NC(=O)[C@H](CC(=O)O)NC(=O)[C@H](C)NC(=O)[C@H](C)NC(=O)CNC(=O)[C@H](CCC(=O)O)NC(=O)CNC(=O)[C@H](CS)NC(=O)[C@H](C)NC(=O)[C@H](CC(C)C)NC(=O)[C@H](CC(C)C)NC(=O)[C@H](CCCCN)NC(=O)[C@H](CC(=O)O)NC(=O)[C@H](CCC(=O)O)NC(=O)[C@H](CO)NC(=O)[C@@H](N)CC(C)C)[C@@H](C)CC)[C@@H](C)CC)[C@@H](C)CC)C(=O)N[C@@H](CCCNC(=N)N)C(=O)N[C@@H](Cc1c[nH]cn1)C(=O)N[C@@H](CCC(=O)O)C(=O)N[C@@H](CCSC)C(=O)N[C@H](C(=O)N1CCC[C@H]1C(=O)N[C@H](C(=O)N[C@@H](CC(N)=O)C(=O)N1CCC[C@H]1C(=O)NCC(=O)N[C@H](C(=O)O)C(C)C)C(C)C)[C@@H](C)O [P149] (H-LSEDKLLACGEGAADIIIGHLCIRHEMTPVNPGV-OH)
% Growth Inhibition [1]: 20%
% Growth Inhibition [2]: 30%
% Growth Inhibition [3]: 10%
% Growth Inhibition [4]: 45%
% Growth Inhibition [5]: 20%
% Growth Inhibition ([6]; 2-Day Assay, Conc. 10^−2 Molar): 5%
% Growth Inhibition ([6]; 6-Day Assay, Conc. 10^−5 Molar): 5-10%
% Inhibition Of Activity: Kidney tumor growth [7]: 70%
% Growth Inhibition [8]: 5%
% Growth Inhibition ([9]; 2-Day Assay, Conc. 10^−2 Molar): 5%
% Growth Inhibition ([9]; 6-Day Assay, Conc. 10^−5 Molar): 10%
% Growth Inhibition [10]: 20%
% Growth Inhibition ([11]; 2-Day Assay, Conc. 10^−2 Molar): 10%
% Growth Inhibition ([11]; 6-Day Assay, Conc. 10^−5 Molar): 25%
% Growth Inhibition ([12]; 2-Day Assay, Conc. 10^−2 Molar): 10%
% Growth Inhibition ([12]; 6-Day Assay, Conc. 10^−5 Molar): 10%
% Growth Inhibition [13]: 15%
% Growth Inhibition [14]: 20%
% Growth Inhibition [15]: 10%
Number of the 60 cancer cell lines against which the peptide appeared cytostatic (not cytotoxic) [16]: 38
% Growth Inhibition ([17]; 2-Day Assay, Conc. 10^−2 Molar): 10%
% Growth Inhibition ([17]; 6-Day Assay, Conc. 10^−5 Molar): 15-20%
% Growth Inhibition ([18]; 2-Day Assay, Conc. 10^−2 Molar): 5%
% Growth Inhibition ([18]; 6-Day Assay, Conc. 10^−5 Molar): 5-10%
% Growth Inhibition [19]: 30%
% Growth Inhibition [20]: 20%
% Growth Inhibition [21]: 5%
% Growth Inhibition [22]: 80%
% Growth Inhibition [23]: 20%

LSENKLLACGEGAANIIIGHLCIRHEMTPVNPGV (listed as Homo sapiens) [P187]
Growth inhibitory potency in the mouse pup model compared with P149 [24]: slightly less growth inhibitory potency
Growth inhibition / decrease in cytosolic ATP in the ATP luminescence assay [25]: significantly different; also recorded: equally responsive as P149 at 10^−8 M
